Reference: patent publication US20160038526A1, “TREATMENT OF PROSTATE CANCER” (THOMAS JEFFERSON UNIVERSITY, priority 2012, published 2016)

Experiments:
CWR22Rv1 cells = experiment: Cell viability, MTS metabolic activity assay, CWR22Rv1; format: cell-based, human; details: CWR22Rv1, 72 h
Method: (§1) CWR22Rv1 prostate cancer cells were treated with N6BAP or the control compound C5 (Ctrl) at 25 μM concentration or vehicle for 24 h. Following trypan blue exclusion, the attached viable vs. de-attached dead cells were counted. […] The bars indicate mean±SD of triplicate wells. In another assay, CWR22Rv1, LNCaP and DU145 cells were treated with N6BAP, the control compound C5 (Ctrl) or vehicle at indicated concentrations. The fraction of alive cells was determined by MTS ([…]) metabolic activity assay (CellTiter 96® AQueous Assay kit). The results are shown in FIGS. 9C, 9D and 9E, respectively.

[1] = test system: A549 human lung cancer cells; experiment: Cell viability assay, A549; format: cell-based
Method: as §1
(§2) The procedure of Example 9 was followed, substituting cells of the following solid tumor cell lines for the cells treated in Example 9: A549 human lung cancer cells, CAPAN human pancreatic cancer cells, T47D human breast cancer cells, […], A2058 human melanoma and COS-7 monkey fibroblast cell lines.

LNCaP cells = experiment: Cell viability, MTS metabolic activity assay, LNCaP; format: cell-based, human; details: 72 hours
Method: as §1

Stat5 = target: T1, Stat5 (Homo sapiens, UniProt P42229); experiment: Prolactin-induced Stat5 phosphorylation in CWR22Rv1 cells (immunoprecipitation/Western blot); format: cell-based; details: CWR22Rv1 cells, 25, 50 and 100 μM for 2 h, 10 nM Prl 30 minutes
T1 construct: endogenous in cells; host or cells: CWR22Rv1
Method: (§3) CWR22Rv1 cells were starved for 24 h in serum-free medium, treated N6BAP at 25, 50 and 100 μM concentrations for 2 h, followed by stimulation with 10 nM Prl for 30 minutes. Stat5a and Jak2 were immunoprecipitated with anti-Stat5a or anti-Jak2 pAbs. Immunoprecipitates of CWR22Rv1 cells were blotted with anti-PYStat5, anti-Stat5a/b mAb or anti-PY mAb (for Jak2). Whole cell lysates were immunoblotted with anti-actin pAb for loading control. Because SH2-domain of Stat5 mediates the recruitment of Stat5 to the Prl-receptor-Jak2-complex and Stat5 phosphorylation, N6BAP inhibits Prl-induced phosphorylation of Stat5.
(§4) The protocol in more detail comprised the following. Cell pellets were solubilized in lysis buffer [10 mM Tris-HCl (pH 7.6), 5 mM EDTA, 50 mM sodium chloride, 30 mM sodium pyrophosphate, 50 mM sodium fluoride, 1 mM sodium orthovanadate, 1% Triton X-100, 1 mM phenylmethylsulfonyl fluoride, 5 μg/mlaprotinin, 1 μg/ml pepstatin A, and 2 μg/ml leupeptin], rotated end-over-end at 4° C. for 60 min, and insoluble material was pelleted at 12,000×g for 30 min at 4° C. The protein concentrations of clarified cell lysates were determined by simplified Bradford method (Bio-Rad Laboratories, Hercules, Calif.). Stat5a, Stat5b and Jak2 were immunoprecipitated from whole cell lysates with anti-Stat5a, anti-Stat5b (4 μl/ml; Millipore, Billerica, Mass.) or anti-Jak2 (Millipore) pAbs. […]

HT1080 (fibrosarcoma) = experiment: Cell viability assay, HT1080; format: cell-based
Stat3 = Stat3 (Homo sapiens, UniProt P40763); experiment: IL-6-induced Stat3 transcriptional activity, luciferase reporter in LNCaP cells; format: cell-based; details: 6.0 μM for 2 h, 50 ng/ml IL-6 for 16 h
Method: LNCaP prostate cancer cells were transiently co-transfected with pStat3, pIL-6-receptor (pIL-6R), pStat3-Luc and pRL-TK (Renilla luciferase). The cells were serum-starved for 20 h, pre-treated with N6BAP or the control compound C5 (Ctrl) at 6.0 μM for 2 h followed by stimulation with 50 ng/ml of IL-6 for 16 h. The relative luciferase activities were determined. S.E. values are indicated by bars.

Stat5a/b = experiment: Nuclear Stat5a/b immunostaining in CWR22Rv1 xenograft tumors; format: in vivo, nude mice; details: CWR22Rv1 xenograft tumors of Example 10
Method: Nuclear active Stat5a/b or nuclear active Stat3 were analyzed by immunostaining with an anti-Stat5a/b or anti-Stat3 antibody, respectively, and biotin-streptavidin amplified peroxidase antiperoxidase immunodetection of paraffin-embedded sections of the prostate xenograft tumors of Example 10. Anti-Stat5a/b (mAb) (55 ng/ml) (Santa Cruz Biotechnology) was used as the primary antibody and antigen-antibody complexes were detected by appropriate biotinylated goat secondary antibodies (Biogenex Laboratories) followed by streptavidin-horseradish-peroxidase complex, and 3,3′-diaminobenzidine as chromogen and Mayer hematoxylin as counterstain. Three microscopic views of each tumor (ten tumors per each treatment group) were photographed at 20× magnification. Nuclear Stat5 and Stat3 indexes were determined by counting epithelial cells with nuclear Stat5a/b immunostaining-positive cells per total number of epithelial cells per view. The counts were averaged within the tumors in a given treatment group.

Jak2 = target: T2, Jak2 (Homo sapiens, UniProt O60674); experiment: Jak2 phosphorylation in CWR22Rv1 cells (immunoprecipitation/Western blot); format: cell-based; details: CWR22Rv1 cells, 25, 50 and 100 μM for 2 h, 10 nM Prl 30 minutes
T2 construct: endogenous in cells; host or cells: CWR22Rv1
Method: as §3, §4

[2] = test system: T47D human breast cancer cells; experiment: Cell viability assay, T47D; format: cell-based
Method: as §1, §2

A2058 human melanoma = experiment: Cell viability assay, A2058; format: cell-based
Method: as §1, §2

COS-7 (monkey kidney) = experiment: Cell viability assay, COS-7; format: cell-based
Method: as §1, §2

T2 sequence (O60674 whole entry): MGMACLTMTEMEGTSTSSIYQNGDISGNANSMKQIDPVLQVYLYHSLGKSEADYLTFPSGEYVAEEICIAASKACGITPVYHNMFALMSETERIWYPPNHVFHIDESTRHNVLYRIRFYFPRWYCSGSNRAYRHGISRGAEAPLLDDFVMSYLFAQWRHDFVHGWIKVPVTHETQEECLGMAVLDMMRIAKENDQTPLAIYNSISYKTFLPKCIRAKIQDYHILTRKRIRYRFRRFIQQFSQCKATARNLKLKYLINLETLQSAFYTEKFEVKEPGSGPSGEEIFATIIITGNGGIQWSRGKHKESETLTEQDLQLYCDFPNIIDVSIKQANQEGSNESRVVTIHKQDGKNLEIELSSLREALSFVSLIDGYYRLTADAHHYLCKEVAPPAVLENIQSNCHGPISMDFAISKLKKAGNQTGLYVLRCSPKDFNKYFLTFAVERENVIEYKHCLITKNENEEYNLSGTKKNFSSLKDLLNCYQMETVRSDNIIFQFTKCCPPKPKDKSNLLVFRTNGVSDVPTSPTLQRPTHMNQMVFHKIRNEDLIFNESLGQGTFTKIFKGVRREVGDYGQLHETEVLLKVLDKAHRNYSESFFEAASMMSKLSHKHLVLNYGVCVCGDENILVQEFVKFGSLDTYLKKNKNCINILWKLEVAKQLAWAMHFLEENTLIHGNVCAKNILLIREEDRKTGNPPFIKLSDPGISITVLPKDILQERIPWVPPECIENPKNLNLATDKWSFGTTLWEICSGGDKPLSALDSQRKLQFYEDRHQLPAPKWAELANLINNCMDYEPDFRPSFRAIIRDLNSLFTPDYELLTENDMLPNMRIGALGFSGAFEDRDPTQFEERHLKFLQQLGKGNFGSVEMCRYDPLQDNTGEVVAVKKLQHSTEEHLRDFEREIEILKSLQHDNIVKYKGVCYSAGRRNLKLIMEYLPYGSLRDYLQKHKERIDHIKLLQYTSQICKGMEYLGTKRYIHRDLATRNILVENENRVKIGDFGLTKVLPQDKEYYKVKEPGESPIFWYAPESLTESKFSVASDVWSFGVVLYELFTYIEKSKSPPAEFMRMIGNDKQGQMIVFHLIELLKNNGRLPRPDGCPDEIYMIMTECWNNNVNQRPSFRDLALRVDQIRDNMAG
Chain of Stat3 (P40763 whole entry, species assumed): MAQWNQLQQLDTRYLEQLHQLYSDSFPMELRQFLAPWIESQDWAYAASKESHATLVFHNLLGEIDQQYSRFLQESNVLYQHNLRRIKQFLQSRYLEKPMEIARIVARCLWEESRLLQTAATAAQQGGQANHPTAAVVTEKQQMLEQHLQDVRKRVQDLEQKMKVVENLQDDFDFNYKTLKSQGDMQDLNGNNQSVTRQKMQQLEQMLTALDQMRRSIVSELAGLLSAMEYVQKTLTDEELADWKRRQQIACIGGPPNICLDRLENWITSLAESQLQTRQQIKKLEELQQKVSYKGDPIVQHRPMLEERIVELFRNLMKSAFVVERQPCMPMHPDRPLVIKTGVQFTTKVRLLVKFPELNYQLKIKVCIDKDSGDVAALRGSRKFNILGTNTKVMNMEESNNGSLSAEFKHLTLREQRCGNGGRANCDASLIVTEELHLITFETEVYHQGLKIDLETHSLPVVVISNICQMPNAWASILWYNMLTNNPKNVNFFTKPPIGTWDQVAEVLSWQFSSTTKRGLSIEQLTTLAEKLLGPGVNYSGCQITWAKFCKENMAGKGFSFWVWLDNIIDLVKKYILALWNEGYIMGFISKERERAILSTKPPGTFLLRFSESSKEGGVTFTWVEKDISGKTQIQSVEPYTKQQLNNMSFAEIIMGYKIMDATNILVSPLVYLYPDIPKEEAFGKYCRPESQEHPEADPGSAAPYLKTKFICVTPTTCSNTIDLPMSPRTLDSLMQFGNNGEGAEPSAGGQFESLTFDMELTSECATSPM
T1 sequence (P42229 whole entry): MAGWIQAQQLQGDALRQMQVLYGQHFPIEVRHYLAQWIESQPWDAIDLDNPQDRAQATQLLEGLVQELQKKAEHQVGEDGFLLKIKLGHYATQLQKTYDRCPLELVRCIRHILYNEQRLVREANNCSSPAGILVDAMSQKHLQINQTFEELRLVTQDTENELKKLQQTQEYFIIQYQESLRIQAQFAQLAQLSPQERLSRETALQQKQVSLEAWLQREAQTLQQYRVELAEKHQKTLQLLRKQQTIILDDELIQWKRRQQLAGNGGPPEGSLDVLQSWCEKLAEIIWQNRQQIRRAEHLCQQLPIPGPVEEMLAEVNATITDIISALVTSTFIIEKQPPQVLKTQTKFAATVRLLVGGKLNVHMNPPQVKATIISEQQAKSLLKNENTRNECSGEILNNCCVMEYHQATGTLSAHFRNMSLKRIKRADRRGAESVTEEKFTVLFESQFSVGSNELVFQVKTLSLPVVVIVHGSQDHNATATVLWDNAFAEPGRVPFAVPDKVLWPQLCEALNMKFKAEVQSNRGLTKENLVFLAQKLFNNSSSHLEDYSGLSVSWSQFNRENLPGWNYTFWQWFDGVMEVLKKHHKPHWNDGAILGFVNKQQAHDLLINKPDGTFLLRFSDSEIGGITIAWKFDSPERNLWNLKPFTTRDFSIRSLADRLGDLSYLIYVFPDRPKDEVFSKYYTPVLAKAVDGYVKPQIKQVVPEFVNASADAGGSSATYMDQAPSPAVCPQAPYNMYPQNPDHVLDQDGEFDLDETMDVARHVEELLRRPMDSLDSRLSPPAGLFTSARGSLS

Question: Which “number of viable cells” value (CWR22Rv1 cells) does the source give for `O=P(O)(O)OC[C@H]1O[C@@H](n2cnc3c(NCc4ccccc4)ncnc32)[C@H](O)[C@@H]1O` [N6BAP, N^6-benzyladenosine-5′-monophosphate] here?
Answer: Its value is “decreases the number of viable cells”.

Question: And the cell viability [1]?
Answer: Its cell viability is “did not affect the viability”.

Question: What about the “number of viable cells” value (LNCaP cells) of the same molecule?
Answer: Its value is “decreases the number of viable cells”.

Question: What about the “Prl-induced phosphorylation of Stat5” value (Stat5) of the same molecule?
Answer: The value was “inhibits Stat5 phosphorylation”.

Question: What about the cell viability (HT1080 (fibrosarcoma)) of the same molecule?
Answer: The cell viability was “did not affect the viability”.

Question: What about the “transcriptional activity of Stat3” value (Stat3) of the same molecule?
Answer: The value was “does not inhibit the transcriptional activity of Stat3”.

Question: And the “nuclear Stat5a/b expression in xenograft tumors” value (Stat5a/b)?
Answer: The value was “inhibits nuclear Stat5a/b expression”.

Question: And the “phosphorylation of Jak2” value (Jak2)?
Answer: Its value is “does not affect phosphorylation of Jak2”.

Question: What about the cell viability [2] of the same molecule?
Answer: Its cell viability is “did not affect the viability”.

Question: And the cell viability (A2058 human melanoma)?
Answer: The cell viability was “did not affect the viability”.

Question: And the cell viability (COS-7 (monkey kidney))?
Answer: Its cell viability is “did not affect the viability”.
